Reference: patent publication US5817648A, “Vitamin D3 analogues having an unsaturated side chain” (Duphar International Research B.V., priority 1995, dated 1998)

Tests used:
[1] = molecular target: T1, calf thymus intracellular vitamin D receptor (VDR) (Bos taurus, UniProt Q28037); experiment: Affinity to intracellular vitamin D receptor (displacement of 3H-1α,25-DHCC); format: binding
T1 construct: calf thymus intracellular vitamin D receptor (VDR); from tissue; host or cells: calf thymus
T1 sequence (Q28037 1-426): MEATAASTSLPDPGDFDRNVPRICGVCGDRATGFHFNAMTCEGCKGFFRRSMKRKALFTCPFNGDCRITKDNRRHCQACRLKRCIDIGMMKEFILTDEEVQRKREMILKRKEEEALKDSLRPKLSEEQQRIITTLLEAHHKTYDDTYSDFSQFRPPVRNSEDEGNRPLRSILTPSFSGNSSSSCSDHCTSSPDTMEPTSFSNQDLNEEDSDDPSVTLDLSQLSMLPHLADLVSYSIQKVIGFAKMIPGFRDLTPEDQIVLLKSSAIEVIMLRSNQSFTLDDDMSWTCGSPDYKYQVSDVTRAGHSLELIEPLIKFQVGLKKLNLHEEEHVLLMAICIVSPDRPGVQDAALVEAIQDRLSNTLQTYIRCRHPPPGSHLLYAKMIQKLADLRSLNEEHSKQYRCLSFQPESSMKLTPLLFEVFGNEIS
From the text: In this assay, ^3 H-1α,25-dihydroxycholecalciferol (^3 H-1α,25-DHCC), which is specifically bound to the VDR, is replaced by the tested compounds. […] 9 times that of calcitriol. A high affinity towards the VDR is indicative for biologically active compounds.

[2] = system: human leukemic cell line HL-60; experiment: Cell differentiation in HL-60 assay (NBT reduction); format: cell-based; conditions: compared with calcitriol
Experimental: The vitamin D compounds to be investigated are dissolved in ethanol in concentrations ranging from 10^-12 to 10^-6 M and tested for their capacity to induce cell differentiation in a HL-60 assay. In this assay, biochemical examination of the human leukemic cell line HL-60 is performed, in order to establish whether cell differentiation has taken place.
Differentiation is expressed as the maturation parameter nitroblue tetrazolium (NBT) reduction. After culturing with the known calcitriol or with the vitamin D compounds to be investigated, the percentage of cells containing black formazan deposits is determined. An increase in the percentage of NBT reducing cells indicates an increase in cell differentiation.
Proliferation and vitality of the cell cultures are established by counting the number of cells and by the trypan blue exclusion method.

[3] = system: Vitamin D binding protein (DBP); experiment: Affinity to vitamin D binding protein (competition with 3H-1α,25-DHCC); conditions: DBP purified from total human serum
Experimental: Vitamin D binding protein (DBP) is the specific carrier for vitamin D and its metabolites in blood. The biological activity of vitamin D compounds depends on their binding to DBP, because strong binding to DBP will reduce the intracellular access to the VDR. Binding to the DBP may also influence the half-life of the vitamin D derivatives in circulation. Weak binders are rapidly metabolized, which is a favourable aspect in topical application.
In the assay, DBP is incubated with ^3 H-1α,25-DHCC and 1α,25-DHCC or with the vitamin D compounds to be investigated. To this purpose, the vitamin compounds are dissolved in ethanol in concentrations ranging from 10^-11 to […]. The percentage bound/unbound ^3 H-1α,25-DHCC is then calculated. DBP is purified from total human serum. Both 24,24-dihomo-.increment.(24-24a)-calcitriol and 24,24-dihomo-.increment.(24a-24b)-calcitriol are much weaker binders to the DBP than calcitriol (2% and 3.5% respectively).

affinity towards the VDR relative to calcitriol ([1]; relative to calcitriol) | binding to the DBP relative to calcitriol [3] | affinity towards the VDR, times that of calcitriol [1] | Structure (SMILES) | activity in inducing differentiation of HL-60 cells, times less active than calcitriol [2] | activity in inducing differentiation and maturation of the HL-60 cells (in words) [2]
≤ 1% | 2% | – | C=C1/C(=C\C=C2/CCC[C@]3(C)[C@@H]([C@H](C)CC/C=C/CC(C)(C)O)CC[C@@H]23)C[C@@H](O)C[C@@H]1O [24,24-dihomo-.increment.(24-24a)calcitriol] | 4 times less active | –
– | – | – | C=C1/C(=C\C=C2/CCC[C@]3(C)[C@@H]([C@H](C)CCCC(C)(C)O)CC[C@@H]23)C[C@@H](O)C[C@@H]1O [Calcitriol, calcitriol] | – | equally active
– | 3.5% | 9 times that of calcitriol | C=C1/C(=C\C=C2/CCC[C@]3(C)[C@@H]([C@H](C)CCC/C=C/C(C)(C)O)CC[C@@H]23)C[C@@H](O)C[C@@H]1O [Compound 16, (5Z,7E)-(1S,3R)-9,10-Seco-24a,24b-dihomo-(24aE)-5,7,10(19),24a-cholestatetraen-1,3,25-triol] | – | equally active
